Reference: patent US12077503B2, “Substituted cyclic amides and their use as herbicides” (FMC CORPORATION, priority 2015, dated 2024)

Key:
Format in all cases: in vivo
[1] = system: Kochia (Kochia scoparia); assay: Test A preemergence; settings: for Plant response rating, Kochia: 125 g ai/ha
Excerpt: (§1) Seeds of plant species selected from barnyardgrass (Echinochloa crus-galli), Kochia (Kochia scoparia), ragweed (common ragweed, Ambrosia elatior), ryegrass, Italian (Italian ryegrass, Lolium multiflorum), crabgrass, large (Digitaria sanguinalis), giant foxtail (Setaria faberii), green foxtail (Setaria viridis), morningglory (Ipomoea spp.), pigweed (Amaranthus retroflexus), velvetleaf (Abutilon theophrasti), wheat (Triticum aestivum), and corn (Zea mays) were planted into a blend of loam soil and sand and treated preemergence with a directed soil spray using test chemicals formulated in anon-phytotoxic solvent mixture which included a surfactant.
(§2) At the same time, plants selected from these crop and weed species and also blackgrass (Alopecurus myosuroides), and Galium (catchweed bedstraw, Galium aparine) were planted in pots containing the same blend of loam soil and sand and treated with postemergence applications of test chemicals formulated in the same manner. Plants ranged in height from 2 to 10 cm and were in the one- to two-leaf stage for the postemergence treatment. Treated plants and untreated controls were maintained in a greenhouse for approximately 10 d, after which time all treated plants were compared to untreated controls and visually evaluated for injury. Plant response ratings, summarized in Table A, are based on a 0 to 100 scale where 0 is no effect and 100 is complete control. A dash (-) response means no test result.

[2] = system: barnyardgrass (Echinochloa crus-galli); assay: Test A preemergence; settings: for Plant response rating, Barnyardgrass: 125 g ai/ha
Excerpt: as §1, §2

[3] = system: giant foxtail (Setaria faberii); assay: Test A preemergence; settings: for Plant response rating, Foxtail, Giant: 125 g ai/ha
Excerpt: as §1, §2

[4] = system: pigweed (Amaranthus retroflexus); assay: Test A preemergence; settings: for Plant response rating, Pigweed: 125 g ai/ha
Excerpt: as §1, §2

[5] = system: ragweed (common ragweed, Ambrosia elatior); assay: Test A preemergence; settings: for Plant response rating, Ragweed: 125 g ai/ha
Excerpt: as §1, §2

[6] = system: ryegrass, Italian (Italian ryegrass, Lolium multiflorum); assay: Test A preemergence; settings: for Plant response rating, Ryegrass, Italian: 125 g ai/ha
Excerpt: as §1, §2

[7] = system: Galium (catchweed bedstraw, Galium aparine); assay: Test A postemergence; settings: for Galium plant response rating: 125 g ai/ha, visual injury rating on 0 to 100 scale (0 no effect, 100 complete control), approx. 10 d; for Plant response rating, Galium: 500 g ai/ha
Excerpt: as §1, §2

[8] = system: Kochia (Kochia scoparia); assay: Test A postemergence; settings: for Kochia plant response rating: 125 g ai/ha, visual injury rating on 0 to 100 scale (0 no effect, 100 complete control), approx. 10 d; for Plant response rating, Kochia: 500 g ai/ha
Excerpt: as §1, §2

[9] = system: barnyardgrass (Echinochloa crus-galli); assay: Test A postemergence
Excerpt: as §1, §2

[10] = system: blackgrass (Alopecurus myosuroides); assay: Test A postemergence
Excerpt: as §1, §2

[11] = system: corn (Zea mays); assay: Test A postemergence; settings: for Corn plant response rating: 125 g ai/ha, visual injury rating on 0 to 100 scale (0 no effect, 100 complete control), approx. 10 d; for Plant response rating, Corn: 500 g ai/ha
Excerpt: as §1, §2

[12] = system: giant foxtail (Setaria faberii); assay: Test A postemergence; settings: for Foxtail, Giant plant response rating: 125 g ai/ha, visual injury rating on 0 to 100 scale (0 no effect, 100 complete control), approx. 10 d; for Plant response rating, Foxtail, Giant: 500 g ai/ha
Excerpt: as §1, §2

[13] = system: pigweed (Amaranthus retroflexus); assay: Test A postemergence; settings: for Pigweed plant response rating: 125 g ai/ha, visual injury rating on 0 to 100 scale (0 no effect, 100 complete control), approx. 10 d; for Plant response rating, Pigweed: 500 g ai/ha
Excerpt: as §1, §2

[14] = system: ragweed (common ragweed, Ambrosia elatior); assay: Test A postemergence; settings: for Ragweed plant response rating: 125 g ai/ha, visual injury rating on 0 to 100 scale (0 no effect, 100 complete control), approx. 10 d; for Plant response rating, Ragweed: 500 g ai/ha
Excerpt: as §1, §2

[15] = system: ryegrass, Italian (Italian ryegrass, Lolium multiflorum); assay: Test A postemergence; settings: for Ryegrass, Italian plant response rating: 125 g ai/ha, visual injury rating on 0 to 100 scale (0 no effect, 100 complete control), approx. 10 d; for Plant response rating, Ryegrass, Italian: 500 g ai/ha
Excerpt: as §1, §2

[16] = system: wheat (Triticum aestivum); assay: Test A postemergence; settings: for Wheat plant response rating: 125 g ai/ha, visual injury rating on 0 to 100 scale (0 no effect, 100 complete control), approx. 10 d; for Plant response rating, Wheat: 500 g ai/ha
Excerpt: as §1, §2

[17] = system: barnyardgrass (Echinochloa crus-galli); assay: Test B flooded paddy test; settings: Flood, 0 to 100 scale where 0 is no effect and 100 is complete control, 13 to 15 d
In short: (§3)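 2-leaf plants; pots flooded 3 cm over soil; cpd added to paddy water; depth held; greenhouse 13–15 d; visual rating vs controls, 0 = no effect, 100 = complete control.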

[18] = system: ducksalad (Heteranthera limosa); assay: Test B flooded paddy test; settings: Flood, 0 to 100 scale where 0 is no effect and 100 is complete control, 13 to 15 d
In short: as §3

[19] = system: rice (Oryra sativa); assay: Test B flooded paddy test; settings: Flood, 0 to 100 scale where 0 is no effect and 100 is complete control, 13 to 15 d
In short: as §3

[20] = system: sedge, umbrella (small-flower umbrella sedge, Cyperus difformis); assay: Test B flooded paddy test; settings: Flood, 0 to 100 scale where 0 is no effect and 100 is complete control, 13 to 15 d
In short: as §3

[21] = preemergence, 0 to 100 scale (0 no effect, 100 complete control)
[22] = Preemergence, 500 g ai/ha, 0 is no effect, 100 is complete control
[23] = postemergence, 0 to 100 scale, 0 no effect, 100 complete control
[24] = 500 g ai/ha, postemergence, 0 to 100 scale, 0 no effect, 100 complete control
[25] = Postemergence, 125 g ai/ha, visual injury, 0 to 100 scale (0 no effect, 100 complete control), approx. 10 d
[26] = Preemergence, visual injury after approximately 10 d, 0 to 100 scale where 0 is no effect and 100 is complete control
[27] = Preemergence, 500 g ai/ha, visual injury approx. 10 d
[28] = Postemergence, 0 to 100 scale where 0 is no effect and 100 is complete control
[29] = 125 g ai/ha, postemergence, visual injury rating on 0 to 100 scale (0 no effect, 100 complete control), approx. 10 d
[30] = Postemergence, 500 g ai/ha, 0 to 100 scale where 0 is no effect and 100 is complete control

In the case of `O=C1NCC(c2cccc(OCC(F)F)c2)C1C(=O)Nc1ccccc1F` (racemic) [Compound 387], the “Plant response rating, Kochia” value [1, 21] is reported as 0, the “Kochia plant response rating (0 to 100 scale)” value [1, 22] is reported as 0 and the “Plant response rating, Barnyardgrass” value [2, 21] is reported as 70. The “Barnyardgrass plant response rating (0 to 100 scale)” value [2, 22] was 80, the “Plant response rating, Foxtail, Giant” value [3, 21] was 70 and the “Foxtail, Giant plant response rating (0 to 100 scale)” value [3, 22] was 90. For the same compound, the “Plant response rating, Pigweed” value [4, 21] was 0, the “Pigweed plant response rating (0 to 100 scale)” value [4, 22] was 0 and the “Plant response rating, Ragweed” value [5, 21] was 0. The “Ragweed plant response rating (0 to 100 scale)” value [5, 22] was 0, the “Plant response rating, Ryegrass, Italian” value [6, 21] was 0 and the “Ryegrass, Italian plant response rating (0 to 100 scale)” value [6, 22] was 0. For the same compound, the “Galium plant response rating” value ([7]; postemergence) was 0, the “Plant response rating, Galium” value [7, 23] was 0 and the “Kochia plant response rating” value ([8]; postemergence) was 0. For the same compound, the “Plant response rating, Kochia” value [8, 23] was 0, the “Plant response rating, Barnyardgrass” value [9, 24] was 70 and the “Plant response rating, Barnyardgrass” value [9, 25] was 70. For the same compound, the “Plant response rating, Blackgrass” value [10, 24] was 50, the “Plant response rating, Blackgrass” value [10, 25] was 0 and the “Corn plant response rating” value ([11]; postemergence) was 0. For the same compound, the “Plant response rating, Corn” value [11, 23] was 0, the “Foxtail, Giant plant response rating” value ([12]; postemergence) was 50 and the “Plant response rating, Foxtail, Giant” value [12, 23] was 70. For the same compound, the “Pigweed plant response rating” value ([13]; postemergence) was 0, the “Plant response rating, Pigweed” value [13, 23] was 0 and the “Ragweed plant response rating” value ([14]; postemergence) was 0. For the same compound, the “Plant response rating, Ragweed” value [14, 23] was 0, the “Ryegrass, Italian plant response rating” value ([15]; postemergence) was 0 and the “Plant response rating, Ryegrass, Italian” value [15, 23] was 0. The “Wheat plant response rating” value ([16]; postemergence) was 0, the “Plant response rating, Wheat” value [16, 23] was 0 and the “Plant response rating, Barnyardgrass” value ([17]; 500 g ai/ha) was 50. The “Plant response rating, Ducksalad” value ([18]; 500 g ai/ha) was 75, the “Plant response rating, Rice” value ([19]; 500 g ai/ha) was 20 and the “Plant response rating, Sedge, Umbrella” value ([20]; 500 g ai/ha) was 0.
With `Cc1ccc(C2CNC(=O)C2C(=O)Nc2ccccc2S(C)(=O)=O)c(F)c1` (racemic) [Compound 507] the “Plant response rating, Kochia” value [1, 26] was 0, the “Kochia plant response rating (0 to 100 scale, 0 is no effect, 100 is complete control)” value [1, 27] was 70 and the “Plant response rating, Barnyardgrass” value [2, 26] was 40. For the same compound, the “Barnyardgrass plant response rating (0 to 100 scale, 0 is no effect, 100 is complete control)” value [2, 27] was 80, the “Plant response rating, Foxtail, Giant” value [3, 26] was 0 and the “Foxtail, Giant plant response rating (0 to 100 scale, 0 is no effect, 100 is complete control)” value [3, 27] was 50. The “Plant response rating, Pigweed” value [4, 26] was 0, the “Pigweed plant response rating (0 to 100 scale, 0 is no effect, 100 is complete control)” value [4, 27] was 20 and the “Plant response rating, Ragweed” value [5, 26] was 0. The “Ragweed plant response rating (0 to 100 scale, 0 is no effect, 100 is complete control)” value [5, 27] was 0, the “Plant response rating, Ryegrass, Italian” value [6, 26] was 0 and the “Ryegrass, Italian plant response rating (0 to 100 scale, 0 is no effect, 100 is complete control)” value [6, 27] was 0. For the same compound, the “Galium plant response rating” value ([7]; postemergence) was 0, the “Plant response rating, Galium” value [7, 28] was 20 and the “Kochia plant response rating” value ([8]; postemergence) was 30. For the same compound, the “Plant response rating, Kochia” value [8, 28] was 70, the “Barnyardgrass plant response rating” value [9, 29] was 20 and the “Plant response rating, Barnyardgrass” value [9, 30] was 60. For the same compound, the “Blackgrass plant response rating” value [10, 29] was 0, the “Plant response rating, Blackgrass” value [10, 30] was 0 and the “Corn plant response rating” value ([11]; postemergence) was 0. The “Plant response rating, Corn” value [11, 28] was 0, the “Foxtail, Giant plant response rating” value ([12]; postemergence) was 0 and the “Plant response rating, Foxtail, Giant” value [12, 28] was 20. The “Pigweed plant response rating” value ([13]; postemergence) was 0, the “Plant response rating, Pigweed” value [13, 28] was 0 and the “Ragweed plant response rating” value ([14]; postemergence) was 0. For the same compound, the “Plant response rating, Ragweed” value [14, 28] was 20, the “Ryegrass, Italian plant response rating” value ([15]; postemergence) was 0 and the “Plant response rating, Ryegrass, Italian” value [15, 28] was 0. For the same compound, the “Wheat plant response rating” value ([16]; postemergence) was 0, the “Plant response rating, Wheat” value [16, 28] was 0 and the “Plant response rating, Barnyardgrass” value ([17]; 250 g ai/ha) was 0. The “Plant response rating, Ducksalad” value ([18]; 250 g ai/ha) was 75, the “Plant response rating, Rice” value ([19]; 250 g ai/ha) was 0 and the “Plant response rating, Sedge, Umbrella” value ([20]; 250 g ai/ha) was 0.
